Test results: patent US10882864B2, “Process for preparing BTK inhibitors” (Genentech, Inc., priority 2016, dated 2021)
Converted amounts (≈) assume the structure as drawn. Like-named read-outs stand apart in the source and are kept apart here.

Assay: Solubility in various solvents (sonicated at 25° C., centrifuged, filtered, HPLC)
Type: physicochemical
Details: thermodynamic from solid, read-out: Solubility (mg/mL at 25° C.)
Description: (§1) The solubility of compound 141 was evaluated in various solvents. In the evaluation, a compound 141 sample was place into a 1.5 mL vial, 1 mL of the solvent was added, and the mixture was sonicated at 25° C. for 5 minutes. The mixture was then centrifuged, the upper supernatant was filtered through a microfilter, a filtrate aliquot was taken, diluted with acetonitrile, filtered, and injected into an HPLC column. The results are summarized in Example 8 Table 4 below where the purity of compound 141 was greater than 98 area % by HPLC.
as §1, with “compound 180” for “compound 141”, “was placed” for “was place”, “Example 9” for “Example 8”

[1] = organic solvent or mixture, solvent Acetone
[2] = organic solvent or mixture, solvent Acetonitrile
[3] = organic solvent or mixture, solvent Dichloromethane
[4] = organic solvent or mixture, solvent Dimethylformamide
[5] = organic solvent or mixture, solvent Ethanol
[6] = organic solvent or mixture, solvent Ethyl acetate
[7] = organic solvent or mixture, solvent Heptane
[8] = organic solvent or mixture, solvent Isopropanol
[9] = organic solvent or mixture, solvent Methanol
[10] = organic solvent or mixture, solvent Methyl tetrahydrofuran
[11] = organic solvent or mixture, solvent Petroleum ether
[12] = organic solvent or mixture, solvent Tetrahydrofuran
[13] = organic solvent or mixture, solvent Toluene
[14] = organic solvent or mixture, solvent tert-Butyl methyl ether

Row | solubility at 5 min (organic solvent or mixture, solvent Dioxane) [mg/mL] | SMILES | solubility at 5 min [1] [mg/mL] | solubility at 5 min [2] [mg/mL] | solubility at 5 min [3] [mg/mL] | solubility at 5 min [4] [mg/mL] | solubility at 5 min [5] [mg/mL] | solubility at 5 min [6] [mg/mL] | solubility at 5 min [7] [mg/mL] | solubility at 5 min [8] [mg/mL] | solubility at 5 min [9] [mg/mL] | solubility at 5 min [10] [mg/mL] | solubility at 5 min [11] [mg/mL] | solubility at 5 min [12] [mg/mL] | solubility at 5 min [13] [mg/mL] | solubility at 5 min [14] [mg/mL] | solubility at 5 min (solvent Water) [mg/mL]
1 |  | C[C@H]1CN(C2COC2)CCN1c1ccc(N)nc1 [Compound 141] | 154 (≈ 619 mM) | 97.7 (≈ 393 mM) | 269 (≈ 1080 mM) | 200 (≈ 803 mM) | 154 (≈ 618 mM) | 82.3 (≈ 331 mM) | 0.32 (≈ 1.29 mM) | 222 (≈ 895 mM) | 221 (≈ 892 mM) | 83 (≈ 334 mM) | 0.26 (≈ 1.05 mM) | 175 (≈ 705 mM) | 20.6 (≈ 83 mM) | 7.39 (≈ 29.8 mM) | 30.7 (≈ 124 mM)
2 | 44.7 (≈ 103 mM) | C[C@H]1CN(C2COC2)CCN1c1ccc(Nc2cc(Br)cn(C)c2=O)nc1 [Compound 180] | 3.73 (≈ 8.59 mM) | 2.3 (≈ 5.3 mM) | 50.6 (≈ 116 mM) | 20.8 (≈ 47.9 mM) | 1.52 (≈ 3.5 mM) | 4.53 (≈ 10.4 mM) | 0.03 (≈ 0.0691 mM) | 2.65 (≈ 6.1 mM) | 1.35 (≈ 3.11 mM) | 7.19 (≈ 16.6 mM) | 0.03 (≈ 0.0691 mM) | 24 (≈ 55.3 mM) | 9.81 (≈ 22.6 mM) | 1.25 (≈ 2.88 mM) | 0.52 (≈ 1.2 mM)
